Literature values in patent US20120142605A1, “METHODS OF TREATING PSORIASIS” (Amgen Inc., priority 2009, published 2012).

Test system: psoriasis patients
Conditions: not completely effective for all patients

Substance: etanercept
- time for which it can be safely and effectively used: at least 96 weeks
